Reference: ChEMBL document CHEMBL1136102, “Synthesis and antibacterial activity of oxazolidinone containing sulphonyl group” (2003)
≈ marks a conversion by molar mass, not a printed value.

Assays:
Format in all cases: functional
Streptococcus = experiment: In vitro antibacterial activity against Streptococcus
Streptococcus pneumoniae = experiment: In vitro antibacterial activity against Streptococcus pneumoniae
Staphylococcus aureus = experiment: In vitro antibacterial activity against Staphylococcus aureus
[1] = test system: Staphylococcus epidermidis; experiment: In vitro antibacterial activity against Staphylococcus epidermidis
Staphylococcus hominis = experiment: In vitro antibacterial activity against Staphylococcus hominis

Row | MIC (Streptococcus) [µg/mL] | MIC (Streptococcus pneumoniae) [µg/mL] | MIC (Staphylococcus aureus) [µg/mL] | MIC [1] [µg/mL] | MIC (Staphylococcus hominis) [µg/mL] | SMILES
1 | > 64 | > 64 | > 64 | > 64 | > 64 | CC(=O)NC[C@H]1CN(c2ccc(N3CCN(S(=O)(=O)c4ccccc4NC(C)=O)CC3)c(F)c2)C(=O)O1
2 | > 128 | > 128 | > 128 | > 128 | > 128 | CC(=O)NC[C@H]1CN(c2ccc(N3CCN(S(=O)(=O)c4cccc(NC(C)=O)c4)CC3)c(F)c2)C(=O)O1
3 | 8 (≈ 15.3 µM) | 8 (≈ 15.3 µM) | 8 (≈ 15.3 µM) | 4 (≈ 7.67 µM) |  | CC(=O)NC[C@H]1CN(c2ccc(N3CCN(S(=O)(=O)c4ccccc4[N+](=O)[O-])CC3)c(F)c2)C(=O)O1
4 | 32 (≈ 60 µM) | 32 (≈ 60 µM) | 32 (≈ 60 µM) | 1 (≈ 1.87 µM) | 4 (≈ 7.5 µM) | CC(=O)NC[C@H]1CN(c2ccc(N3CCN(S(=O)(=O)c4ccc(NC(C)=O)cc4)CC3)c(F)c2)C(=O)O1
5 | 128 (≈ 261 µM) | > 128 | 128 (≈ 261 µM) | 4 (≈ 8.15 µM) | 64 (≈ 130 µM) | CC(=O)NC[C@H]1CN(c2ccc(N3CCN(S(=O)(=O)c4ccc(C)cc4)CC3)c(F)c2)C(=O)O1
6 | 4 (≈ 8.39 µM) | 2 (≈ 4.2 µM) | 4 (≈ 8.39 µM) | 0.25 (≈ 0.525 µM) | 1 (≈ 2.1 µM) | CC(=O)NC[C@H]1CN(c2ccc(N3CCN(S(=O)(=O)c4ccccc4)CC3)c(F)c2)C(=O)O1
7 | 2 (≈ 4.07 µM) | 2 (≈ 4.07 µM) | 8 (≈ 16.3 µM) | 4 (≈ 8.14 µM) |  | CC(=O)NC[C@H]1CN(c2ccc(N3CCN(S(=O)(=O)c4ccccc4N)CC3)c(F)c2)C(=O)O1

The next lines start with the compound.

Row | SMILES | MIC (Streptococcus) [µg/mL] | MIC (Streptococcus pneumoniae) [µg/mL] | MIC (Staphylococcus aureus) [µg/mL] | MIC [1] [µg/mL] | MIC (Staphylococcus hominis) [µg/mL]
8 | CC(=O)NC[C@H]1CN(c2ccc(N3CCN(S(=O)(=O)c4ccc(Br)cc4)CC3)c(F)c2)C(=O)O1 | > 128 | > 128 | > 128 | 128 (≈ 230 µM) | > 128
9 | COc1ccc(S(=O)(=O)N2CCN(c3ccc(N4C[C@H](CNC(C)=O)OC4=O)cc3F)CC2)cc1 | 16 (≈ 31.6 µM) | 8 (≈ 15.8 µM) | 16 (≈ 31.6 µM) | 0.5 (≈ 0.987 µM) | 2 (≈ 3.95 µM)
10 | CC(=O)NC[C@H]1CN(c2ccc(N3CCN(S(=O)(=O)c4cccc(N)c4)CC3)c(F)c2)C(=O)O1 | 1 (≈ 2.03 µM) | 1 (≈ 2.03 µM) | 0.5 (≈ 1.02 µM) | 0.25 (≈ 0.509 µM) | 0.25 (≈ 0.509 µM)
11 | CC(=O)NC[C@H]1CN(c2ccc(N3CCN(S(=O)(=O)c4cccc([N+](=O)[O-])c4)CC3)c(F)c2)C(=O)O1 | 4 (≈ 7.67 µM) | 1 (≈ 1.92 µM) | 4 (≈ 7.67 µM) | 0.25 (≈ 0.479 µM) | 0.5 (≈ 0.959 µM)
12 | CC(=O)NC[C@H]1CN(c2ccc(N3CCN(S(=O)(=O)c4ccc([N+](=O)[O-])cc4)CC3)c(F)c2)C(=O)O1 | 128 (≈ 245 µM) | 128 (≈ 245 µM) | 128 (≈ 245 µM) | 8 (≈ 15.3 µM) | 32 (≈ 61.4 µM)
13 | CC(=O)NC[C@H]1CN(c2ccc(N3CCN(S(=O)(=O)c4ccc(N)cc4)CC3)c(F)c2)C(=O)O1 | 16 (≈ 32.6 µM) | 16 (≈ 32.6 µM) | 16 (≈ 32.6 µM) | 0.25 (≈ 0.509 µM) | 0.25 (≈ 0.509 µM)
14 | CC(=O)NC[C@H]1CN(c2ccc(N3CCN(S(=O)(=O)c4cccs4)CC3)c(F)c2)C(=O)O1 | 4 (≈ 8.29 µM) | 4 (≈ 8.29 µM) | 16 (≈ 33.2 µM) | 4 (≈ 8.29 µM) | 
15 | CC(=O)NC[C@H]1CN(c2ccc(N3CCOCC3)c(F)c2)C(=O)O1 [LINEZOLID] | 2 (≈ 5.93 µM) |  |  | 0.5 (≈ 1.48 µM) | 1 (≈ 2.96 µM)
16 | CC(=O)NC[C@H]1CN(c2ccc(N3CCN(S(C)(=O)=O)CC3)c(F)c2)C(=O)O1 | 4 (≈ 9.65 µM) | 2 (≈ 4.83 µM) | 4 (≈ 9.65 µM) | 0.5 (≈ 1.21 µM) | 2 (≈ 4.83 µM)
